Experimental data: patent US20230295200A1 (REGENTS OF THE UNIVERSITY OF MICHIGAN, priority 2022, published 2023)

Target: T1, STAT6 protein (Homo sapiens, UniProt P42226)
T1 sequence (P42226 1-847): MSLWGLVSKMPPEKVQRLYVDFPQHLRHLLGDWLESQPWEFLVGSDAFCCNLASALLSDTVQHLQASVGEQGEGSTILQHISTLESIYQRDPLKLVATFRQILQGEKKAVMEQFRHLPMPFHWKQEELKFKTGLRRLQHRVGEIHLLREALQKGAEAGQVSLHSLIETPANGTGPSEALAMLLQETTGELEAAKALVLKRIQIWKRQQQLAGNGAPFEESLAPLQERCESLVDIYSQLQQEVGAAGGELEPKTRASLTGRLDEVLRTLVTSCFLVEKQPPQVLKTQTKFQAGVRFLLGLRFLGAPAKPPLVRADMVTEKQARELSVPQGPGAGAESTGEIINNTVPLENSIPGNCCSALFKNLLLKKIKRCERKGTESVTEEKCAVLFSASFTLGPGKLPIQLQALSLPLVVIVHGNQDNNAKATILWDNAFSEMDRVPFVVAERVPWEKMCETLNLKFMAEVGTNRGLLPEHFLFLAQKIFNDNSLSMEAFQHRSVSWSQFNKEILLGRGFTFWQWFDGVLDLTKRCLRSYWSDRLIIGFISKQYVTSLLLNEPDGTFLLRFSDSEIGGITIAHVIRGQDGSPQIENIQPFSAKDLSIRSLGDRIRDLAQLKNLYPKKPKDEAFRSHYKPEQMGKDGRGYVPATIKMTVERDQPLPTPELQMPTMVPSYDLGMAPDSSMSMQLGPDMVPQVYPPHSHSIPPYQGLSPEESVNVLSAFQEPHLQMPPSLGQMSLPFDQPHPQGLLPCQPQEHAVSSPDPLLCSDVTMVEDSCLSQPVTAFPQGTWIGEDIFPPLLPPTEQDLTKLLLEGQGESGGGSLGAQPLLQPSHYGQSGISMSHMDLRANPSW
Assay: Fluorescence polarization (FP) binding assay, STAT6
Conditions: not given
In short: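 5 nM fluorescein tracer + 200 nM STAT protein; PBS pH 7.4, 0.01% BGG, 0.01% Tween-20, 2 mM DTT; shake 15 min, 1 h RT equilibrium; FP read; nonlinear fit for inhibition constants.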

Question: `CCOP(=O)(O)C(F)(F)c1ccc2sc(C(=O)N[C@H]3CN(C(C)=O)CC[C@H]4CC[C@@H](C(=O)N5CCC6(CCCCCC6)C5)N4C3=O)cc2c1` [Compound 384, ethyl hydrogen ((2-(((5S,85,10aR)-3-acetyl-6-oxo-8-(2-azaspiro[4.6]undecane-2-carbonyl)decahydropyrrolo[1,2-a][1,5]diazocin-5-yl)carbamoyl)benzo[b]thiophen-5-yl)difluoromethyl)phosphonate] was tested. Which Ki did it give?
Answer: > 10 µM

Same assay, conditions: FP competition, 5 nM fluorescein-labeled tracer, 200 nM protein, PBS pH7.4; read-out: Binding STAT6

Question: With `CC(=O)N1CC[C@H]2CC[C@@H](C(=O)N3CCc4cc(Cl)ccc4C3)N2C(=O)[C@@H](NC(=O)c2cc3cc(C(F)(F)P(=O)(O)O)ccc3[nH]2)C1` [Compound 366, ((2-(((5S,8S,10aR)-3-acetyl-8-(6-chloro-1,2,3,4-tetrahydroisoquinoline-2-carbonyl)-6-oxodecahydropyrrolo[1,2-a][1,5]diazocin-5-yl)carbamoyl)-1H-indol-5-yl)difluoromethyl)phosphonic acid] as the compound, how does the Ki read?
Answer: > 10 µM

Question: With `CC(=O)N1CC[C@H]2CC[C@@H](C(=O)N3CCOCC3)N2C(=O)[C@@H](NC(=O)c2cc3cc(C(F)(F)P(=O)(O)O)ccc3[nH]2)C1` [Compound 367, ((2-(((5S,8S,10aR)-3-acetyl-8-(morpholine-4-carbonyl)-6-oxodecahydropyrrolo[1,2-a][1,5]diazocin-5-yl)carbamoyl)-1H-indol-5-yl)difluoromethyl)phosphonic acid] as the compound, how does the Ki read?
Answer: > 10 µM

Question: With `CC(=O)N1CC[C@H]2CC[C@@H](C(=O)N3CCCOCC3)N2C(=O)[C@@H](NC(=O)c2cc3cc(C(F)(F)P(=O)(O)O)ccc3[nH]2)C1` [Compound 368, ((2-(((5S,8S,10aR)-3-acetyl-8-(1,4-oxazepane-4-carbonyl)-6-oxodecahydropyrrolo[1,2-a][1,5]diazocin-5-yl)carbamoyl)-1H-indol-5-yl)difluoromethyl)phosphonic acid] as the compound, how does the Ki read?
Answer: > 10 µM

Question: For `CC(=O)N1CC[C@H]2CC[C@@H](C(=O)N3CCCc4ccccc4C3)N2C(=O)[C@@H](NC(=O)c2cc3cc(C(F)(F)P(=O)(O)O)ccc3[nH]2)C1` [Compound 369, ((2-(((5S,8S,10aR)-3-acetyl-6-oxo-8-(2,3,4,5-tetrahydro-1H-benzo[c]azepine-2-carbonyl)decahydropyrrolo[1,2-a][1,5]diazocin-5-yl)carbamoyl)-1H-indol-5-yl)difluoromethyl)phosphonic acid], which Ki is on record?
Answer: > 10 µM

Question: How did the Ki turn out when `CC(=O)N1CC[C@H]2CC[C@@H](C(=O)N(c3ccccc3)c3ccc(Br)cc3)N2C(=O)[C@@H](NC(=O)c2cc3cc(C(F)(F)P(=O)(O)O)ccc3[nH]2)C1` [Compound 370, ((2-(((5S,8S,10aR)-3-acetyl-8-((4-bromophenyl)(phenyl)carbamoyl)-6-oxodecahydropyrrolo[1,2-a][1,5]diazocin-5-yl)carbamoyl)-1H-indol-5-yl)difluoromethyl)phosphonic acid] was run?
Answer: 1 to 10 µM

Question: How did the Ki turn out when `CC(=O)N1CC[C@H]2CC[C@@H](C(=O)N(c3ccc(Cl)cc3)C3CCCCC3)N2C(=O)[C@@H](NC(=O)c2cc3cc(C(F)(F)P(=O)(O)O)ccc3[nH]2)C1` [Compound 371, ((2-(((5S,8S,10aR)-3-acetyl-8-((4-chlorophenyl)(cyclohexyl)carbamoyl)-6-oxodecahydropyrrolo[1,2-a][1,5]diazocin-5-yl)carbamoyl)-1H-indol-5-yl)difluoromethyl)phosphonic acid] was run?
Answer: > 10 µM

Question: With `CC(=O)N1CC[C@H]2CC[C@@H](C(=O)N3CCOc4ccccc43)N2C(=O)[C@@H](NC(=O)c2cc3cc(C(F)(F)P(=O)(O)O)ccc3[nH]2)C1` [Compound 372, ((2-(((5S,8S,10aR)-3-acetyl-8-(3,4-dihydro-2H-benzo[b][1,4]oxazine-4-carbonyl)-6-oxodecahydropyrrolo[1,2-a][1,5]diazocin-5-yl)carbamoyl)-1H-indol-5-yl)difluoromethyl)phosphonic acid] as the compound, how does the Ki read?
Answer: > 10 µM

Question: Which Ki does the source give for `CC(=O)N1CC[C@H]2CC[C@@H](C(=O)N3CCc4cc(I)ccc4C3)N2C(=O)[C@@H](NC(=O)c2cc3cc(C(F)(F)P(=O)(O)O)ccc3[nH]2)C1` [Compound 373, ((2-(((5S,8S,10aR)-3-acetyl-8-(6-iodo-1,2,3,4-tetrahydroisoquinoline-2-carbonyl)-6-oxodecahydropyrrolo[1,2-a][1,5]diazocin-5-yl)carbamoyl)-1H-indol-5-yl)difluoromethyl)phosphonic acid] here?
Answer: 1 to 10 µM

Question: `CC(=O)N1CC[C@H]2CC[C@@H](C(=O)N3CCc4ccccc4CC3)N2C(=O)[C@@H](NC(=O)c2cc3cc(C(F)(F)P(=O)(O)O)ccc3[nH]2)C1` [Compound 374, ((2-(((5S,8S,10aR)-3-acetyl-6-oxo-8-(2,3,4,5-tetrahydro-1H-benzo[d]azepine-3-carbonyl)decahydropyrrolo[1,2-a][1,5]diazocin-5-yl)carbamoyl)-1H-indol-5-yl)difluoromethyl)phosphonic acid] was tested. Which Ki did it give?
Answer: > 10 µM

Question: How did the Ki turn out when `CC(=O)N1CC[C@H]2CC[C@@H](C(=O)N(C)c3ccc(Cl)cc3)N2C(=O)[C@@H](NC(=O)c2cc3cc(C(F)(F)P(=O)(O)O)ccc3[nH]2)C1` [Compound 375, ((2-(((5S,8S,10aR)-3-acetyl-8-((4-chlorophenyl)(methyl)carbamoyl)-6-oxodecahydropyrrolo[1,2-a][1,5]diazocin-5-yl)carbamoyl)-1H-indol-5-yl)difluoromethyl)phosphonic acid] was run?
Answer: > 10 µM

Question: Which Ki does the source give for `CC(=O)N1CC[C@H]2CC[C@@H](C(=O)N(C)c3ccc(F)cc3)N2C(=O)[C@@H](NC(=O)c2cc3cc(C(F)(F)P(=O)(O)O)ccc3[nH]2)C1` [Compound 376, ((2-(((5S,8S,10aR)-3-acetyl-8-((4-fluorophenyl)(methyl)carbamoyl)-6-oxodecahydropyrrolo[1,2-a][1,5]diazocin-5-yl)carbamoyl)-1H-indol-5-yl)difluoromethyl)phosphonic acid] here?
Answer: > 10 µM

Question: How did the Ki turn out when `CC(=O)N1CC[C@H]2CC[C@@H](C(=O)N3Cc4ccc(Cl)cc4C3)N2C(=O)[C@@H](NC(=O)c2cc3cc(C(F)(F)P(=O)(O)O)ccc3[nH]2)C1` [Compound 377, ((2-(((5,8S,10aR)-3-acetyl-8-(5-chloroisoindoline-2-carbonyl)-6-oxodecahydropyrrolo[1,2-a][1,5]diazocin-5-yl)carbamoyl)-1H-indol-5-yl)difluoromethyl)phosphonic acid] was run?
Answer: > 10 µM

Question: For `CC(=O)N1CC[C@H]2CC[C@@H](C(=O)N3Cc4cccc(Cl)c4C3)N2C(=O)[C@@H](NC(=O)c2cc3cc(C(F)(F)P(=O)(O)O)ccc3[nH]2)C1` [Compound 378, ((2-(((5S,8S,10aR)-3-acetyl-8-(4-chloroisoindoline-2-carbonyl)-6-oxodecahydropyrrolo[1,2-a][1,5]diazocin-5-yl)carbamoyl)-1H-indol-5-yl)difluoromethyl)phosphonic acid], which Ki is on record?
Answer: > 10 µM

Question: With `CN(C(=O)[C@@H]1CC[C@@H]2CCC[C@H](NC(=O)c3cc4cc(C(F)(F)P(=O)(O)O)ccc4s3)C(=O)N21)c1ccc(Cl)cc1` [Compound 379, ((2-(((3S,6S,9aS)-3-((4-chlorophenyl)(methyl)carbamoyl)-5-oxooctahydro-1H-pyrrolo[1,2-a]azepin-6-yl)carbamoyl)benzo[b]thiophen-5-yl)difluoromethyl)phosphonic acid] as the compound, how does the Ki read?
Answer: > 10 µM

Question: `CN(C(=O)[C@@H]1CC[C@H]2CCC[C@H](NC(=O)c3cc4cc(C(F)(F)P(=O)(O)O)ccc4s3)C(=O)N21)c1ccc(Cl)cc1` [Compound 380, ((2-(((3S,65,9aR)-3-((4-chlorophenyl)(methyl)carbamoyl)-5-oxooctahydro-1H-pyrrolo[1,2-a]azepin-6-yl)carbamoyl)benzo[b]thiophen-5-yl)difluoromethyl)phosphonic acid] was tested. Which Ki did it give?
Answer: > 10 µM

Question: Which Ki does the source give for `CC(=O)N1CC[C@H]2CC[C@@H](C(=O)N3CCCCC3)N2C(=O)[C@@H](NC(=O)c2cc3cc(C(F)(F)P(=O)(O)O)ccc3s2)C1` [Compound 381, ((2-(((5S,8S,10aR)-3-acetyl-6-oxo-8-(piperidine-1-carbonyl)decahydropyrrolo[1,2-a][1,5]diazocin-5-yl)carbamoyl)benzo[b]thiophen-5-yl)difluoromethyl)phosphonic acid] here?
Answer: > 10 µM

Question: For `CC(=O)N1CC[C@H]2CC[C@@H](C(=O)N3CCC4(CCCC4)C3)N2C(=O)[C@@H](NC(=O)c2cc3cc(C(F)(F)P(=O)(O)O)ccc3s2)C1` [Compound 382, ((2-(((5S,8S,10aR)-3-acetyl-6-oxo-8-(2-azaspiro[4.4]nonane-2-carbonyl)decahydropyrrolo[1,2-a][1,5]diazocin-5-yl)carbamoyl)benzo[b]thiophen-5-yl)difluoromethyl)phosphonic acid], which Ki is on record?
Answer: > 10 µM

Question: Which Ki does the source give for `CC(=O)N1CC[C@H]2CC[C@@H](C(=O)N3CCC4(CCCCC4)C3)N2C(=O)[C@@H](NC(=O)c2cc3cc(C(F)(F)P(=O)(O)O)ccc3s2)C1` [Compound 383, ((2-(((5,8S,10aR)-3-acetyl-6-oxo-8-(2-azaspiro[4.5]decane-2-carbonyl)decahydropyrrolo[1,2-a][1,5]diazocin-5-yl)carbamoyl)benzo[b]thiophen-5-yl)difluoromethyl)phosphonic acid] here?
Answer: > 10 µM
